Laboratory results: patent US20100111874A1, “METHOD OF CANCER DETECTION AND TREATMENT” (University of Medicine and Dentistry of New Jresey, priority 2007, published 2010)

Legend:
MCF7 breast cancer cells = assay: MTT assay, CPT IC50; format: cell-based; settings: Homo sapiens, 96 h, CPT continuously for 4 days
Procedure: (§1) Cell survival assays. MTT assay: Cells (3000 cells/well) are plated in 96-well microtiter plates and incubated at 37° C. in a CO2 incubator. For determination of IC50, cells are treated with varying concentrations of CPT for four days. Cells are then incubated with MTT (3-(4,5-dimethylthiazol-2-yl)-2,5-diphenyltetrazolium bromide) for 4 hrs at 37° C. The dye produced by viable cells is dissolved in DMSO and the optical density measured at 570 nm. All assays are performed at least twice in six replicate wells. Clonogenic assay: Cells (100-500 cells/plate) are plated in 6-well tissue culture plates and incubated at 37° C. in a CO2 incubator. Cells are then treated with various concentrations of CPT for 1 hr. Following CPT treatment, cells are washed free of CPT and placed in fresh medium. After 10 days, survived colonies are stained with Methylene blue and counted using the Minicount machine. Cell counting assay: Logarithmically growing cells are treated with various concentrations of CPT for 1 hr. CPT is then removed by washing the plates with CPT-free medium four times. Washed cells are allowed to grow in CPT-free medium for 4 days. Cell survival is determined by counting cells using the Coulter counter after trypsinization.
(§2) Example No. 6. […] Panel A, formation of cleavable complexes in MCF7 and MCF7/RC breast cancer cells. […]

[1] = test system: MCF7/RC breast cancer cells; assay: MTT assay, CPT IC50; format: cell-based; settings: Homo sapiens, 96 h; MCF7/RC low-level CPT-resistant clone; CPT continuously for 4 days
Procedure: as §1, §2

## CC[C@@]1(O)C(=O)OCc2c1cc1n(c2=O)Cc2cc3ccccc3nc2-1 [CPT, camptothecin]
MCF7 breast cancer cells
  IC50: 0.0035 µM
[1]
  IC50: 0.03 µM
